According to ChEMBL document CHEMBL4138112, “Synthesis of novel indole derivatives as promising DNA-binding agents and evaluation of antitumor and antitopoisomerase I activities” (Eur J Med Chem, 2017):
Activity calls are given as the source filed them. No cut-off for these calls is given here.

What was measured:
HL-60 = experiment: Cytotoxicity against human HL60 cells assessed as reduction in cell viability after 72 hrs by MTT assay; type: functional, cell-based; conditions: HL-60, 72 h
K562 = experiment: Cytotoxicity against human K562 cells assessed as reduction in cell viability after 72 hrs by MTT assay; type: functional, cell-based; conditions: K562, 72 h
T47D = experiment: Cytotoxicity against human T47D cells assessed as reduction in cell viability after 72 hrs by MTT assay; type: functional, cell-based
MCF7 = experiment: Cytotoxicity against human MCF7 cells assessed as reduction in cell viability after 72 hrs by MTT assay; type: functional, cell-based; conditions: MCF7, 72 h
Calf thymus DNA [1] = experiment: Binding affinity to calf thymus DNA assessed as hypochromicity at 10 to 80 uM by UV-Visible absorption spectroscopy relative to control; type: nucleic-acid assay; conditions: Bos taurus
Calf thymus DNA [2] = experiment: Binding affinity to calf thymus DNA by UV-Visible absorption spectroscopy; type: nucleic-acid assay; conditions: Bos taurus
Calf thymus DNA [3] = experiment: Inhibition of ethidium bromide binding to calf thymus DNA by fluorescence spectra analysis; type: nucleic-acid assay; conditions: Bos taurus
Calf thymus DNA [4] = experiment: Binding affinity to calf thymus DNA assessed as change in absorption maximum at 10 to 80 uM by UV-Visible absorption spectroscopy (reference value: 425 to 500 nanometer); type: nucleic-acid assay; conditions: Bos taurus
Calf thymus DNA [5] = experiment: Binding affinity to calf thymus DNA assessed as hyperchromicity at 10 to 80 uM by UV-Visible absorption spectroscopy relative to control; type: nucleic-acid assay; conditions: Bos taurus
Calf thymus DNA [6] = experiment: Inhibition of ethidium bromide binding to calf thymus DNA at 20 to 200 uM by fluorescence spectra analysis; type: nucleic-acid assay; conditions: Bos taurus
[7] = molecular target: T1, DNA topoisomerase 1 (Homo sapiens) (UniProt P11387); experiment: Inhibition of human recombinant topoisomerase 1-mediated relaxation of supercoiled pUC19 DNA at 10 to 50 uM after 45 mins by ethidium bromide staining based agarose gel electrophoresis method
T1 sequence (whole entry): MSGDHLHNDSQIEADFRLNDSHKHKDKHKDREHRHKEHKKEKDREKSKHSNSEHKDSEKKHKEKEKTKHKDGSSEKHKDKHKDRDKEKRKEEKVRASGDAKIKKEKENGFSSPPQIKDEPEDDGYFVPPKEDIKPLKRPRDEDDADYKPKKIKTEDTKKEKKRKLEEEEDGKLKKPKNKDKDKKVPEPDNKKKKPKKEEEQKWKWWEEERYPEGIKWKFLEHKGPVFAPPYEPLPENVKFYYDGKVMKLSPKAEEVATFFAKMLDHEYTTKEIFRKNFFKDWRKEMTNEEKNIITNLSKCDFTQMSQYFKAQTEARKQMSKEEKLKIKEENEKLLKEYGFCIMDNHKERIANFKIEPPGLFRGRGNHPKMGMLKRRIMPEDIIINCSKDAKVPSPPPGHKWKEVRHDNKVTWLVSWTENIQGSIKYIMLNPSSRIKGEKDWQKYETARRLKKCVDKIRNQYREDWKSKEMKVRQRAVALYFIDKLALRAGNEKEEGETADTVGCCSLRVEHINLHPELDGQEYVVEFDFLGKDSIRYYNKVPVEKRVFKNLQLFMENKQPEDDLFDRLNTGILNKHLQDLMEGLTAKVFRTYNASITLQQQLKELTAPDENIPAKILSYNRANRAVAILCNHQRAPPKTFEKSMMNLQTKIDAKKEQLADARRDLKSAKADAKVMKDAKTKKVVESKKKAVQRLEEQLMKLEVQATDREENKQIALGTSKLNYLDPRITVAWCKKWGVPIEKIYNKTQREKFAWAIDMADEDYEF

Row | SMILES | Activity (Calf thymus DNA [1]) [%] | Kb (Calf thymus DNA [2]) [×10⁴ /M] | KSV (Calf thymus DNA [3]) | Activity (Calf thymus DNA [4]) [nm] | Activity (Calf thymus DNA [5]) [%] | Activity (Calf thymus DNA [6]) | inhibition [7] | IC50 (HL-60) [µM] | IC50 (K562) [µM] | IC50 (T47D) [µM] | IC50 (MCF7) [µM]
1 | O=C1NC(=S)N/C1=C\c1c[nH]c2ccccc12 | 11 | 6.27 | 1.36 ×10³ /M | 423 | – | – | – | > 50 | > 50 | > 50 | 12.4
2 | NN1C(=O)/C(=C/c2c[nH]c3ccc(Br)cc23)SC1=S | – | 1.84 | 2.96 ×10³ /M | 411 to 413 | 23 | – | – | 6.74 | > 50 | > 50 | > 50
3 | COc1cccc2c1C(=O)c1c(O)c3c(c(O)c1C2=O)C[C@@](O)(C(=O)CO)C[C@@H]3O[C@H]1C[C@H](N)[C@H](O)[C@H](C)O1 [DOXORUBICIN] | – | – | – | – | – | – | – | 0.01 | 6.25 | 4.61 | 2.71
4 | O=C1NC(=S)S/C1=C\c1c[nH]c2ccc(Br)cc12 | – | 1.56 | 6.31 ×10³ /M | 462 to 465 | 8 | – | – | > 50 | > 50 | 11.7 | 3.65

Second part, led by results:

Row | Activity (Calf thymus DNA [1]) [%] | Kb (Calf thymus DNA [2]) [×10⁴ /M] | KSV (Calf thymus DNA [3]) | Activity (Calf thymus DNA [4]) [nm] | Activity (Calf thymus DNA [5]) [%] | Activity (Calf thymus DNA [6]) | inhibition [7] | SMILES | IC50 (HL-60) [µM] | IC50 (K562) [µM] | IC50 (T47D) [µM] | IC50 (MCF7) [µM]
5 | – | 4.51 | 1.78 ×10³ /M | 436 to 462 | 75 | – | – | O=C1NC(=S)S/C1=C\c1c[nH]c2ccccc12 | > 50 | > 50 | > 50 | > 50
6 | – | 5.69 | 1.81 ×10⁴ /M | 504 to 507 | 6 | Active | Active | NN1C(=O)/C(=C/c2c[nH]c3ccccc23)SC1=S | 3.61 | 22.5 | > 50 | > 50
7 | 6 | 5.24 | 3.86 ×10³ /M | 457 | – | – | – | O=C1NC(=O)/C(=C/c2c[nH]c3ccc(Br)cc23)S1 | > 50 | > 50 | > 50 | > 50
8 | 24 | 7.26 | 1.59 ×10³ /M | 378 | – | – | – | O=C1NC(=O)/C(=C/c2c[nH]c3ccccc23)S1 | 12.8 | > 50 | 1.93 | > 50
